{
  "source": "patent US5505944A",
  "about": "“Physiologically active substance NK175203, process for production thereof and pharmaceutical use thereof” (Nippon Kayaku Kabushiki Kaisha, priority 1992, dated 1996)",
  "system": "bone marrow cells",
  "assay": "Bone marrow cell proliferation activity (uptake of [3H]-thymidine)",
  "assay_type": "cell-based, C57BL/6 mouse",
  "conditions": "GM-CSF 100 U/ml alone, NK175203 0 μg/ml",
  "experimental": "The femur was withdrawn from C57BL/6 mouse (10 weeks old) and the bone marrow cells were washed out in Eagle's MEM medium. After allowing to stand at 37° C. for 2 hours in 5% CO2, the supernatant was gently taken to recover the suspended cells alone. The cells were centrifuged at 1200 rpm for 5 minutes to collect the cells. After rinsing with α-MEM medium, the cells were suspended in 20% FBS-containing α-MEM medium. The thus obtained bone marrow cells were inoculated on a 96-well plate in a concentration of 7.5×10^5 cells/200 μl/well, together with the physiologically active substance NK175203 of the present invention or GM-CSF (Lantrell, M. A. et al., Proc. Natl. Acad. Sci., 8.2, 6250-6254, 1985). Incubation was then performed at 37° C. for 112 hours in 5% CO2. Finally ^3 H-thymidine of 37 KBq was added to the system. After culturing for 8 hours, uptake of ^3 H-thymidine into the cells was determined by a liquid scintillation counter.",
  "data": [
    {"substance": "GM-CSF: GM-CSF (Lantrell, M. A. et al., Proc. Natl. Acad. Sci.)", "values": [
      {"measurement": "Uptake of [3H]-Thymidine, mean ± standard error", "value": "33484.4 ± 2136.1"},
      {"measurement": "Uptake of [3H]-Thymidine, %", "setting": "reference (100%) of the GM-CSF series", "value": 100, "unit": "%"}
    ]}
  ]
}
